27 compounds from patent publication US9085555B2, “Complement pathway modulators and uses thereof” (priority 2011, dated 2015) can be followed below.

The target of this experiment is Factor D (Homo sapiens (Human), UniProt P00746). Put plainly: biochemical. It counts as biochemical. The note with it: read-out: IC50.
Sequence of Factor D (P00746 26-253): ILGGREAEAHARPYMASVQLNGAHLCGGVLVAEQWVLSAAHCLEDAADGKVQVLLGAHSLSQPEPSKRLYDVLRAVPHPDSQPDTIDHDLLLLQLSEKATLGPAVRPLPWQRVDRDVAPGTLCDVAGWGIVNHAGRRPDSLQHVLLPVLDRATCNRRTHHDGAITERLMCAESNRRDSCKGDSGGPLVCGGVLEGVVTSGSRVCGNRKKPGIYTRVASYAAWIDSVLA
The IC50 is the midpoint of a concentration-inhibition curve. Turning to `CCc1cccc(NC(=O)[C@@H]2CCCN2C(=O)Nc2cn(C(N)=O)c3ccccc23)n1` [Example 238, (S)-Pyrrolidine-1,2-dicarboxylic acid 1-[(1-carbamoyl-1H-indol-3-yl)-amide] 2-[(6-ethyl-pyridin-2-yl)-amide]], the IC50 turned out to be 650 nM.
As for `CC[C@H](C)[C@H](NC(=O)[C@@H]1C[C@H](N)CN1C(=O)Nc1cn(C(N)=O)c2ccccc12)C(N)=O` [Example 99, (2S,4S)-4-Amino-pyrrolidine-1,2-dicarboxylic acid 1-[(1-carbamoyl-1H-indol-3-yl)-amide] 2-[((1S,2S)-1-carbamoyl-2-methyl-butyl)-amide]], the IC50 was found to be 23200 nM.
For `NC[C@@]1(O)C[C@@H](C(=O)NCc2cccc(Cl)c2F)N(C(=O)Nc2cn(C(N)=O)c3ccccc23)C1` [Example 407, 2S,4S)-4-Aminomethyl-4-hydroxy-pyrrolidine-1,2-dicarboxylic acid 1-[(1-carbamoyl-1H-indol-3-yl)-amide]2-(3-chloro-2-fluoro-benzylamide], the IC50 was 1050 nM.
The value for `CN(C)C(=O)c1cc(Cl)c(F)c(CNC(=O)[C@@H]2C[C@@H](F)CN2C(=O)Nc2cn(C(N)=O)c3ccccc23)c1` [Example 277, (2S,4R)-4-Fluoro-pyrrolidine-1,2-dicarboxylic acid 1-[(1-carbamoyl-1H-indol-3-yl)-amide] 2-(3-chloro-5-dimethylcarbamoyl-2-fluoro-benzylamide)] was 627 nM; that for `CN(C)CCN(C)c1cc(Cl)c(F)c(CNC(=O)[C@@H]2C[C@@H](F)CN2C(=O)Nc2cn(C(N)=O)c3ccccc23)c1` [Example 329, (2S,4R)-4-Fluoro-pyrrolidine-1,2-dicarboxylic acid 1-[(1-carbamoyl-1H-indol-3-yl)-amide] 2-{3-chloro-5-[(2-dimethylamino-ethyl)-methyl-amino]-2-fluoro-benzylamide}] was 181 nM.
For `COC(=O)Cc1ccc2c(C(C)=O)cn(CC(=O)N3[C@@H]4C[C@@H]4C[C@H]3C(=O)NCc3cccc(Cl)c3F)c2c1` [Example 545, (3-Acetyl-1-{2-[(1R,3S,5R)-3-(3-chloro-2-fluoro-benzylcarbamoyl)-2-aza-bicyclo[3.1.0]hex-2-yl]-2-oxo-ethyl}-1H-indol-6-yl)-acetic acid methyl ester], the IC50 is 113 nM.
Regarding `NC(=O)c1cc(Br)cc(NC(=O)[C@@H]2C[C@@H](F)CN2C(=O)Nc2cn(C(N)=O)c3ccccc23)c1` [Example 437, (2S,4R)-4-Fluoro-pyrrolidine-1,2-dicarboxylic acid 2-[(3-bromo-5-carbamoyl-phenyl)-amide]1-[(1-carbamoyl-1H-indol-3-yl)-amide]], the IC50 is 107 nM.
Take `NC(=O)n1cc(NC(=O)N2[C@@H]3C[C@@H]3C[C@H]2C(=O)N[C@H](CO)c2cccc(Cl)c2)c2ccccc21` [Example 320, (1R,3S,5R)-2-Aza-bicyclo[3.1.0]hexane-2,3-dicarboxylic acid 2-[(1-carbamoyl-1H-indol-3-yl)-amide] 3-{[(S)-1-(3-chloro-phenyl)-2-hydroxy-ethyl]-amide}]: the IC50 came out at 7 nM.
As for `NC(=O)n1cc(NC(=O)N2[C@@H]3C[C@@H]3C[C@H]2C(=O)NCc2cccc(Cl)c2F)c2cc(OCCN3CCCC3)ccc21` [Example 388, 1R,3S,5R)-2-Aza-bicyclo[3.1.0]hexane-2,3-dicarboxylic acid 2-{[1-carbamoyl-5-(2-pyrrolidin-1-yl-ethoxy)-1H-indol-3-yl]-amide}3-(3-chloro-2-fluoro-benzylamide], the IC50 was determined as 28 nM.
Consider `NC(=O)n1cc(NC(=O)N2C[C@](F)(CF)C[C@H]2C(=O)NCc2cccc(Cl)c2F)c2ccccc21` [Example 241, (2S,4S)-4-Fluoro-4-fluoromethyl-pyrrolidine-1,2-dicarboxylic acid 1-[(1-carbamoyl-1H-indol-3-yl)-amide] 2-(3-chloro-2-fluoro-benzylamide)], for which the IC50 amounted to 250 nM.
Take `NC(=O)n1cc(NC(=O)N2C[C@@H](O)C[C@H]2C(=O)NCc2cccc(Cl)c2F)c2ccccc21` [Example 331, (2S,4S)-4-Hydroxy-pyrrolidine-1,2-dicarboxylic acid 1-[(1-carbamoyl-1H-indol-3-yl)-amide] 2-(3-chloro-2-fluoro-benzylamide)]: the IC50 was determined as 35 nM.
The value for `CCO[C@H]1[C@@H](C(=O)NCc2cccc(Cl)c2F)N(C(=O)Cn2cc(C(C)=O)c3ccccc32)C[C@@H]1F` [Example 569, (2S,3S,4S)-1-[2-(3-Acetyl-indol-1-yl)-acetyl]-4-fluoro-3-ethoxy-pyrrolidine-2-carboxylic acid 3-chloro-2-fluoro-benzylamide] was 13 nM; that for `NC(=O)c1cn(CC(=O)N2C[C@H](F)C[C@H]2C(=O)NCc2cccc(Cl)c2F)c2cc(OCCO)ccc12` [Example 594, 1-{2-[(2S,4R)-2-(3-Chloro-2-fluoro-benzylcarbamoyl)-4-fluoro-pyrrolidin-1-yl]-2-oxo-ethyl}-6-(2-hydroxy-ethoxy)-1H-indole-3-carboxylic acid amide] was 85 nM; that for `CCOC(=O)[C@H](CC1CCCCC1)NC(=O)[C@@H]1C[C@H]2C[C@H]2N1C(=O)Cn1nc(C(C)=O)c2cccnc21` [Example 765] was 211 nM.
For the compound `COC[C@@]12C[C@@H](C(=O)NCc3cccc(Cl)c3F)N(C(=O)Cc3cn(C(N)=O)c4ccccc34)[C@@H]1C2` [Example 454, 3-{2-[(1R,3S,5S)-3-(3-Chloro-2-fluoro-benzylcarbamoyl)-5-methoxymethyl-2-aza-bicyclo[3.1.0]hex-2-yl]-2-oxo-ethyl}-indole-1-carboxylic acid amide], the IC50 worked out at 103 nM.
The value for `C[C@@]12C[C@@H](C(=O)NCc3cccc(Cl)c3F)N(C(=O)Cn3nc(C(N)=O)c4ccncc43)[C@@H]1C2` [Example 675, 1-{2-[(1R,3S,5R)-3-(3-Chloro-2-fluoro-benzylcarbamoyl)-5-methyl-2-aza-bicyclo [3.1.0]hex-2-yl]-2-oxo-ethyl}-1H-pyrazolo[3,4-c]pyridine-3-carboxylic acid amide] was 23 nM.
For `NC(=O)n1cc(NC(=O)N2[C@@H]3C[C@@H]3C[C@H]2C(=O)NCc2cccc(Cl)c2F)c2cc(CCO)ccc21` [Example 385, 1R,3S,5R)-2-Aza-bicyclo[3.1.0]hexane-2,3-dicarboxylic acid 2-{[1-carbamoyl-5-(2-hydroxy-ethyl)-1H-indol-3-yl]-amide}3-(3-chloro-2-fluoro-benzylamide], the half-inhibitory concentration (IC50) is 7 nM.
Regarding `NC(=O)n1cc(NC(=O)N2C[C@@H](N)C[C@H]2C(=O)NCc2c(F)ccc(Cl)c2F)c2ccccc21` [Example 62, (2S,4S)-4-Amino-pyrrolidine-1,2-dicarboxylic acid 1-[(1-carbamoyl-1H-indol-3-yl)-amide] 2-(3-chloro-2,6-difluoro-benzylamide)], the IC50 stood at 85 nM.
For `O=C(CO)c1cn(CC(=O)N2C[C@H](F)C[C@H]2C(=O)N[C@H](CF)c2cccc(Br)c2)c2ccccc12` [Example 551, (2S,4R)-4-Fluoro-1-{2-[3-(2-hydroxy-acetyl)-indol-1-yl]-acetyl}-pyrrolidine-2-carboxylic acid [(S)-1-(3-bromo-phenyl)-2-fluoro-ethyl]-amide] the value was 899 nM; for `CN(C)CCN(C)Cc1cc(Cl)c(F)c(CNC(=O)[C@@H]2C[C@@H](F)CN2C(=O)Nc2cn(C(N)=O)c3ccccc23)c1` [Example 17, (2S,4R)-4-Fluoro-pyrrolidine-1,2-dicarboxylic acid 1-[(1-carbamoyl-1H-indol-3-yl)-amide] 2-(3-chloro-5-{[(2-dimethylamino-ethyl)-methyl-amino]-methyl}-2-fluoro-benzylamide)], 4050 nM.
As to `CO[C@H]1[C@@H](C(=O)N[C@@H](C)c2cccc(Cl)c2F)N(C(=O)Cn2cc(C(C)=O)c3ccccc32)C[C@@H]1F` [Example 571, (2S,3S,4S)-1-[2-(3-Acetyl-indol-1-yl)-acetyl]-4-fluoro-3-methoxy-pyrrolidine-2-carboxylic acid [(S)-1-(3-chloro-2-fluoro-phenyl)-ethyl]-amide], the IC50 was 99 nM.
Regarding `NC(=O)n1cc(NC(=O)N2CCS[C@H]2C(=O)NCc2cccc(Cl)c2)c2ccccc21` [Example 174, (S)-Thiazolidine-2,3-dicarboxylic acid 3-[(1-carbamoyl-1H-indol-3-yl)-amide] 2-(3-chloro-benzylamide)], the concentration for half-maximal inhibition (IC50) turned out to be 35 nM.
With `NC(=O)n1cc(NC(=O)N2CCS[C@H]2C(=O)NCc2cccc(Cl)c2F)c2ccccc21` [Example 178, (S)-Thiazolidine-2,3-dicarboxylic acid 3-[(1-carbamoyl-1H-indol-3-yl)-amide] 2-(3-chloro-2-fluoro-benzylamide)], the IC50 was determined as 6 nM.
Regarding `C[C@@]1(F)C[C@@H](C(=O)N[C@H](CCO)c2cccc(Cl)c2F)N(C(=O)Nc2cn(C(N)=O)c3ccccc23)C1` [Example 229, (2S,4R)-4-Fluoro-4-methyl-pyrrolidine-1,2-dicarboxylic acid 1-[(1-carbamoyl-1H-indol-3-yl)-amide] 2-{[(R)-1-(3-chloro-2-fluoro-phenyl)-3-hydroxy-propyl]-amide}], the IC50 worked out at 29 nM.
The value for `CS(=O)(=O)c1cccc(NC(=O)[C@@H]2CCCN2C(=O)Nc2cn(C(N)=O)c3ccccc23)c1` [Example 325, (S)-Pyrrolidine-1,2-dicarboxylic acid 1-[(1-carbamoyl-1H-indol-3-yl)-amide] 2-[(3-methanesulfonyl-phenyl)-amide]] was 2250 nM.
Regarding `NC(=O)n1cc(NC(=O)N2C[C@H](F)C[C@H]2C(=O)NCc2ccccc2)c2ccccc21` [Example 2, (2S,4R)-4-Fluoro-pyrrolidine-1,2-dicarboxylic acid 2-benzylamide 1-[(1-carbamoyl-1H-indol-3-yl)-amide]], the IC50 came to 25 nM.
Turning to `CC(=O)n1cc(NC(=O)N2C[C@H](F)C[C@H]2C(=O)NCc2cccc(Cl)c2F)c2ccc(OC(F)F)cc21` [Example 368, 2S,4R)-4-Fluoro-pyrrolidine-1,2-dicarboxylic acid 1-[(1-acetyl-6-difluoromethoxy-1H-indol-3-yl)-amide]2-(3-chloro-2-fluoro-benzylamide], the concentration for half-maximal inhibition (IC50) was 66 nM.
